Article PMC3914206

Legend:
Type in all cases: binding
panel of 442 kinases [1] = molecular target: T1, panel of 442 kinases (Homo sapiens, UniProt O15197); conditions: Compound Concentration 10 µM
T1 construct: purchased KINOMEscan
T1 sequence (O15197 32-1021): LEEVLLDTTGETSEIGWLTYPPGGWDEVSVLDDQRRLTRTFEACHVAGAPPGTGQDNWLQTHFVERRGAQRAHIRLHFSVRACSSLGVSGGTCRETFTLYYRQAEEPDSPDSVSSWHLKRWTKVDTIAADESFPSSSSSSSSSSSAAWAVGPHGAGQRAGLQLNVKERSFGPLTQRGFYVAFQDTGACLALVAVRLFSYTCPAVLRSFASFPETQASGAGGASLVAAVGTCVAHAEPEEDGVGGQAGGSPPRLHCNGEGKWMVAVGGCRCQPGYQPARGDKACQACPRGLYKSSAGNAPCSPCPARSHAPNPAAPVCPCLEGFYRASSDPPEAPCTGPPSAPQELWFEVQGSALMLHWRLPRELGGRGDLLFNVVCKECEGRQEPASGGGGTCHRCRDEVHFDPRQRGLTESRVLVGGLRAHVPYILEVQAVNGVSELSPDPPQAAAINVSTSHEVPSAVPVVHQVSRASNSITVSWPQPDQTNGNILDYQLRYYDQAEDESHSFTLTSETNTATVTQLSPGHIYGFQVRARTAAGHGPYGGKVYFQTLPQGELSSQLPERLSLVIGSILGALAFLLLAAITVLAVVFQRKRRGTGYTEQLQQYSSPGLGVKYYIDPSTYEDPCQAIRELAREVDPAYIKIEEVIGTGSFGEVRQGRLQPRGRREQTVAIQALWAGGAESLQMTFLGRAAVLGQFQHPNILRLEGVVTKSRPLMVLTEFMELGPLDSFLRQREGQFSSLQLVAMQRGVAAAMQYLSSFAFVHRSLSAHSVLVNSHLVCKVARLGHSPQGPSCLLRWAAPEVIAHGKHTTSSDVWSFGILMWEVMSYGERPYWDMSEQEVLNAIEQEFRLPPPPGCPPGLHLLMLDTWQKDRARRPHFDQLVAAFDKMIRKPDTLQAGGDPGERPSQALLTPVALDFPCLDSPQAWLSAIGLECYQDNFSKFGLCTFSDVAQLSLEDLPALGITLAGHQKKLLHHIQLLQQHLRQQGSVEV
From the text: (§1) We assessed the selectivity of members of this scaffold using the KINOMEscan methodology across a near comprehensive panel of 442 kinases [[18,27]].

panel of 442 kinases [2] = molecular target: T2, panel of 442 kinases (Homo sapiens, UniProt P00533, G719C); conditions: Compound Concentration 10 µM
T2 construct: purchased KINOMEscan
From the text: as §1

panel of 442 kinases [3] = molecular target: T3, panel of 442 kinases (Homo sapiens, UniProt P07947); conditions: kinase YES; compound concentration 10 µM
T3 construct: purchased KINOMEscan
From the text: as §1

T3 sequence (P07947 whole entry): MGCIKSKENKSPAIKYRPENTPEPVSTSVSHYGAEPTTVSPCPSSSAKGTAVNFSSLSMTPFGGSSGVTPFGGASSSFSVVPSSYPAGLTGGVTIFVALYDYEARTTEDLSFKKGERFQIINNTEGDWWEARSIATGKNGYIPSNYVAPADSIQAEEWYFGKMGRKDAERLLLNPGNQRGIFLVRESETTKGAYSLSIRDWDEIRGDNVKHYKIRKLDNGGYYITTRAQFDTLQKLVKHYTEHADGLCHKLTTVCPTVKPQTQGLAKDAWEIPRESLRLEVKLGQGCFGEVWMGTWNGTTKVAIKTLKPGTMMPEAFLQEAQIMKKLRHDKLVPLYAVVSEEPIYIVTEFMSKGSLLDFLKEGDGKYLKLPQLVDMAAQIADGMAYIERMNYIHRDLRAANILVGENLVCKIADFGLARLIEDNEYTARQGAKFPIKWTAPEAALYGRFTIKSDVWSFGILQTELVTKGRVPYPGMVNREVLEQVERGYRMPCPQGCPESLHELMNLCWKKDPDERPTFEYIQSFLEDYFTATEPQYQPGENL
T2 sequence (P00533 25-1210 G719C): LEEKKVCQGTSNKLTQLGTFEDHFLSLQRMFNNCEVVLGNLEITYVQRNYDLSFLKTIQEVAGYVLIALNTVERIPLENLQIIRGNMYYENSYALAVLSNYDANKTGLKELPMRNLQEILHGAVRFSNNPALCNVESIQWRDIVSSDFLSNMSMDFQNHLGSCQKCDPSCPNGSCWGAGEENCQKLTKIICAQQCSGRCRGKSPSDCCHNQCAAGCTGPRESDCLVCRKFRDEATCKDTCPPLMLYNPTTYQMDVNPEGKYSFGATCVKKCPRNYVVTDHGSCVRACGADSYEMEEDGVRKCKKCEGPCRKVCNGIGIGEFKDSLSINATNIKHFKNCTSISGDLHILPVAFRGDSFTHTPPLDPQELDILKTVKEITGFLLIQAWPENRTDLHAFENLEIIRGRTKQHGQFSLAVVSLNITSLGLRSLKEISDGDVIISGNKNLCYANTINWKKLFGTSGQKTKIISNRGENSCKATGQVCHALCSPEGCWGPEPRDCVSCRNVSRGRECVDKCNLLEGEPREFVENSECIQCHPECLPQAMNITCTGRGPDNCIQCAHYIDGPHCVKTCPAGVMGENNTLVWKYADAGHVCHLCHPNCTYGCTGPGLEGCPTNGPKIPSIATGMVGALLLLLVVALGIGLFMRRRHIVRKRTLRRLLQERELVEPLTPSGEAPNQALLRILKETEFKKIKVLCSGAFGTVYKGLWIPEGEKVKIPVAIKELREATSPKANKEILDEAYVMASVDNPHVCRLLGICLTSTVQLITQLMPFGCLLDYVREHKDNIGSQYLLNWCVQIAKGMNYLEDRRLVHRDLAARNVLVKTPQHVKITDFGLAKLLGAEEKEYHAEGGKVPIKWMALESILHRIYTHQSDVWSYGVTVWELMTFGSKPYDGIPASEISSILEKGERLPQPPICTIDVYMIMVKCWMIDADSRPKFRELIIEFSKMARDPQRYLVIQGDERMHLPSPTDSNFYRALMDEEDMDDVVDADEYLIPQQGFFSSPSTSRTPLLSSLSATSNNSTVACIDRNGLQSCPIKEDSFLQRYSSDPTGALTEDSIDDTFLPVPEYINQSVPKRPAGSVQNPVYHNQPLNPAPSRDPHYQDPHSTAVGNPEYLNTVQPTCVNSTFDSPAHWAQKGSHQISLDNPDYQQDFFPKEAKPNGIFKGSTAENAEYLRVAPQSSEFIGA

SMILES	KINOMEscan: EPHB6 (panel of 442 kinases [1])	KINOMEscan: EGFR(G719C) (panel of 442 kinases [2])	% Ctrl, YES (panel of 442 kinases [3]) [% Ctrl]
COc1cc(C(=O)N2CCC(N3CCN(C)CC3)CC2)ccc1Nc1ncc2c(n1)N(C)c1ccccc1C(=O)N2C [15 (LRRK2-IN-1)]	31	100	100
COc1cc(C(=O)N2CCC(N3CCN(C)CC3)CC2)ccc1Nc1ncc2c(n1)N1CCc3cccc(c31)C(=O)N2C [Compound 24]	68	66	100
COc1cc(C(=O)N2CCC(N3CCN(C)CC3)CC2)ccc1Nc1ncc2c(n1)N(C1CCCC1)c1ccccc1C(=O)N2C [Compound 25, 11-cyclopentyl-2-((2-methoxy-4-(4-(4-methylpiperazin-1-yl)piperidine-1-carbonyl)phenyl)amino)-5-methyl-5H-benzo[e]pyrimido[5,4-b][1,4]diazepin-6(11H)-one]	69	71	89
CCOc1cc(C(=O)N2CCC(N3CCN(C)CC3)CC2)ccc1Nc1ncc2c(n1)N(C1CCCC1)c1ccccc1C(=O)N2C [Compound 26]	100	100	100
